Experimental data: patent EP2805714B1, “STABLE PHARMACEUTICAL COMPOSITION COMPRISING AMORPHOUS ROSUVASTATIN CALCIUM” (Antibiotice S.A., priority 2013, dated 2014)

Assay: Stability test according to ICH guidelines, related substances by in-house HPLC method
Format: physicochemical
Details: rosuvastatin calcium amorphous active substance (raw material)
Procedure: We performed stability tests on these tablet compositions, according to the method described in ICH guidelines. The tablets were packed in opaque OPA/Al/PVC-Al blisters with very low oxygen and humidity transmission rates. Using a HPLC in house method, we measured the level of lactone and total impurities formed after a period of storage of 12 months at 25°C/60%RH (normal conditions, A1) and of 6 months at 40°C/[…]. The results were compared with those obtained for the tablets at the moment of release (TO) and those obtained for the rosuvastatin calcium amorphous active substance (Table 2). Table 2. Related substances values for the tested formulations

## CC(C)c1nc(N(C)S(C)(=O)=O)nc(-c2ccc(F)cc2)c1/C=C/[C@@H](O)C[C@@H](O)CC(=O)[O-].CC(C)c1nc(N(C)S(C)(=O)=O)nc(-c2ccc(F)cc2)c1/C=C/[C@@H](O)C[C@@H](O)CC(=O)[O-].[Ca+2] [RC amorphous, bis [(E)-7-[4-(4-fluorophenyl)-6-isopropyl-2-[methyl(methylsulfonyl)amino]pyrimidin-5-yl]-(3R,5S)-dihydroxyhept-6-enoic acid] calcium salt]
  Lactone, %: 0.010%
  Total impurities, %: 0.150%
